Measured values from publication PMC7275090, “Mode of action of teixobactins in cellular membranes” (Nature Communications, 2020).
Bridge positions count the residues as written; N and C are the ends. Square brackets hold non-standard residues; d marks the D form. Ends that are not written are not given here. d(aIle) = CC[C@H](C)[C@@H](N)C(=O)O; dNMeF = CN[C@H](Cc1ccccc1)C(=O)O

Columns and labels:
[1] = 2D 15N1H ssNMR of bound teixobactin, Lys-Lipid I; format: binding; conditions: DOPC liposomes; clear signal changes in the ring motif
Method: (§1) 1D, 2D, and 3D ^1H-detected experiments were performed at 60 kHz MAS frequency using magnetic fields of 16.4, 18.8, and 22.2 T (700, 800, and 950 MHz ^1H-frequency) at temperatures of 305 K. All ^1H-detected experiments were dipolar-based. PISSARRO low-power decoupling[47] was used during detection periods. 2D ^13C^13C spin diffusion experiments were performed with PARISxy[48] recoupling at 950 MHz and 15.5, 17, or 18 kHz MAS frequency at 270 K temperature using mixing times of 25–1000 ms. SPINAL64[49] was used in detection periods. The 2D scalar ^13C^13C TOBSY[50] experiment was acquired at 950 MHz with 8 kHz MAS at 295 K temperature with 6 ms ^13C–^13C magnetization transfer time. Chemical shift assignments were performed using standard ^1H-detected 3D CANH and CONH experiments[36],[51] in combination with 2D ^13C^13C PARISxy[48] experiments with different magnetization transfer times (see Supplementary Tables 1 and 2). DNP-enhanced 2D ^13C^13C spin diffusion (20 ms mixing time) ssNMR experiments[52] were carried out using a 263 GHz microwave frequency, 400 MHz ^1H frequency setup (Bruker Biospin) at 100 K temperature and 8.5 kHz MAS.
(§2) Lipid I or II-doped multi-laminar vesicle preparations: DOPC or DOPG lipids were mixed with Lipid I or II in 1:1 MeOH:CHCl3 at the final Lipid I or II molar ratio (0–4 mol%/mol). […]

[2] = 2D 15N1H ssNMR of bound teixobactin, mDAP-Lipid II vs Lys-Lipid II; format: binding; conditions: DOPC liposomes
Method: as §1, §2

[3] = Isothermal titration calorimetry: LUVs containing Lys-Lipid II titrated into [R4L10]-teixobactin; format: binding; conditions: neutral DOPC membranes, LUVs 2% (mol/mol) Lys-Lipid II, citrate phosphate buffer pH ~6, 37 °C, 65 μM peptide in cell; read-out: equilibrium dissociation constant Kd
Method: Preparation of liposomes: For ITC measurements large unilamellar vesicles (LUVs) containing Lys-Lipid II were prepared by incorporating 2% (mol/mol) of Lys-Lipid II in DOPC from the stock solution. The lipids were dried by nitrogen stream and hydrated with 10 mM HEPES, 150 mM NaCl, pH 7.5 buffer to a lipid-phosphate concentration of ~20 mM. LUVs were obtained after 10 rounds of extrusion through 200 nm membrane filters (Whatman Nuclepore, Track-Etch Membranes). The liposomes were dialysed to citrate phosphate buffer (100 mM NaCl, 50 mM citric acid, 100 mM Na2HPO4, pH ~6). Anionic LUVs were prepared by mixing 25% (mol/mol) DOPG and 75% (mol/mol) DOPC and then incorporating 2% (mol/mol) Lys-Lipid II. All other steps were the same as for zwitterionic LUVs.
ITC was performed with the Low Volume NanoITC (Waters LLC, New Castle, DE, USA) to determine interaction between LUVs and [R4L10]-teixobactin. [R4L10]-teixobactin was diluted in a citrate phosphate buffer (100 mM NaCl, 50 mM citric acid, 100 mM Na2HPO4, pH ~6) to a final concentration of 65 μM. Samples were degassed before use. The chamber was filled with 164 μL of [R4L10]-teixobactin, and the LUVs were titrated into the chamber at a rate of 1.96 μL/300 s with a stirring rate of 300 rpm. Experiments were performed at 37 °C and analysed using the Nano Analyse Software (Waters LLC). […]

[4] = ssNMR 15N T1rho relaxation (dynamics of bound teixobactin), Lys-Lipid II; conditions: for Bulk 15N R1rho / Bulk 15N T1rho: 950 MHz, 60 kHz MAS
Method: (§3) Relaxation studies: ^1H-detected ^15N T1rho relaxation experiments were carried out at 950 and 700 MHz magnetic field, respectively, using 60 kHz MAS[51]. The ^15N transverse magnetization decay was probed with a ^15N spinlock field of 17.5 kHz. For the bulk, we measured the intensity of the most intense signal at ~8.80 ^1H ppm. T1rho trajectories were fit to single exponentials.
(§4) Lipid I or II-doped multi-laminar vesicle preparations: DOPC or DOPG lipids were mixed with Lipid I or II in 1:1 MeOH:CHCl3 at the final Lipid I or II molar ratio (0–4 mol%/mol). The mixtures were dried and the lipid films were hydrated by vortexing with 2 mL of a teixobactin solution in 40 mM phosphate, 25 mM NaCl, pH 7.0.
(§5) SSNMR samples: MLVs were collected by centrifugation (20,000×g) and loaded into ssNMR rotors. For 3.2 mm rotors, we used 800 nmol of antibiotic with unlabelled Lipid II or I, while we used 400 nmol with labelled Lipid II. For 1.3 mm rotors, samples contained 200 nmol of antibiotic for unlabelled Lipid II or I, while we used 100 nmol for labelled Lipid II. For all ssNMR samples, we used 4 mol%/mol Lipid II or I in the MLVs.

[5] = 2D NH and DNP ssNMR of teixobactin-Lipid II complex in native cellular membranes; format: binding, Micrococcus flavus DSM 1790
Method: as §1
Native membrane vesicle preparations were obtained from Micrococcus flavus DSM 1790[13],[16]. The amount of antibiotic was ~7.5 and 30 nmol for the 1.3 and 3.2 mm rotors, respectively. […]

[6] = ssNMR 15N T1rho relaxation (dynamics of bound teixobactin), mDAP-Lipid II; conditions: 950 MHz, 60 kHz MAS
Method: as §3, §4, §5

[7] = bound to Lys-LII in DOPC liposomes, 950 MHz/60 kHz MAS
[8] = bound to Lys-Lipid II in DOPC (Lys-LII PC)
[9] = bound to Lys-Lipid II in DOPG (Lys-LII_PG)
[10] = bound to mDAP-Lipid II in DOPC (DAP-LII_PC)
[11] = bound to mDAP-Lipid II in DOPG (DAP-LII_PG)

D-Arg4-Leu10-teixobactin ([dNMeF]IS[dR][d(aIle)]IS[dT]ALI; ester 8-C; also: 13C,15N labels at Ile2, Ser3, Ile6, Ser7 and one Ala (residue not fully stated)) [[R4L10]-teixobactin, teixobactin analogue in which D-Gln4 and L-allo-enduracididine10 are replaced by D-Arg4 and L-Leu10]
binding to Lys-Lipid I [1]: also able to bind Lys-Lipid I | ssNMR spectra bound to Lys-Lipid II vs mDAP-Lipid II [2]: gave the same ssNMR spectra | Kd [3]: 170 nM | mobility of Lipid II-bound peptide with increasing anionic membrane charge ([4]; DOPG vs DOPC, ssNMR relaxation): stark increase in mobility | 15N R1rho, Ala9 [4, 7]: 8.95 s⁻¹ | 15N R1rho, Ile2 [4, 7]: 8.49 s⁻¹ | 15N R1rho, Ile6 [4, 7]: 7.70 s⁻¹ | 15N R1rho, Leu10 [4, 7]: 10.67 s⁻¹ | 15N R1rho, Ser3 [4, 7]: 7.40 s⁻¹ | 15N R1rho, Ser7 [4, 7]: 6.84 s⁻¹ | 15N T1rho, Ala9 [4, 7]: 111.70 ms | 15N T1rho, Ile2 [4, 7]: 117.80 ms | 15N T1rho, Ile6 [4, 7]: 129.90 ms | 15N T1rho, Leu10 [4, 7]: 93.72 ms | 15N T1rho, Ser3 [4, 7]: 135.20 ms | 15N T1rho, Ser7 [4, 7]: 146.10 ms | Bulk 15N R1rho [4, 8]: 9.46 s⁻¹ | Bulk 15N T1rho [4, 8]: 105.70 ms | Bulk 15N R1rho [4, 9]: 29.61 s⁻¹ | Bulk 15N T1rho [4, 9]: 33.77 ms | oligomerization and complex structure in natural membranes ([5]; DNP-ssNMR 2D 13C13C, M. flavus membranes vs DOPC): conserved in natural membranes | cellular 2D NH spectrum vs anionic membranes ([5]; M. flavus membranes, 7.5 nmol of drug): strongly resembled the one in anionic membranes | Bulk 15N R1rho [6, 10]: 22.15 s⁻¹ | Bulk 15N T1rho [6, 10]: 45.14 ms | Bulk 15N R1rho [6, 11]: 36.17 s⁻¹ | Bulk 15N T1rho [6, 11]: 27.65 ms
